How the values were obtained:
[1] = system: ERBB and PI3K family members; assay: potency and selectivity against kinase family members (FIG. 1); assay type: biochemical
[2] = metabolic stability (FIG. 2); assay type: in vitro ADME
[3] = system: EGFR and PI3K pathway signaling; assay: cellular EGFR and PI3K pathway signaling (Western blots); assay type: cell-based; settings: FIG. 4
Experimental: Cells or tumors were lysed in NP-40 lysis buffer [25 mmolL Tris-HCl (pH 7.6), 150 mmol/L NaCl, 1% Nonidet P-40, 10% glycerol, 1 mmol/L EDTA, 1 mmol/L dithiothreitol, and protease and phosphatase inhibitors], rocked for 30 minutes at 4° C., and centrifuged at 13,200 rpm for 20 minutes at 4° C. Protein concentration was determined by BioRad Protein Assays and lysates were subsequently subjected to SDS gel electrophoresis. Proteins were transferred to polyvinylidene fluoride (PVDF) membranes and probed with primary antibodies recognizing p-EGFR tyr1068), EGFR, p-HER2 (tyr1248), HER2, p-AKT (ser473), p-AKT (thr308), AKT, pERK1/2 (thr202/tyr204), ERK1/2, pS6K (ser235/236), S6K, and cleaved PARP (all from Cell Signaling Technology) and beta actin (Abcam). After incubation with anti-rabbit HRP-linked secondary antibody (Jackson ImmunoResearch Laboratories, Inc.), proteins were detected using chemiluminescence (GE Healthcare).

HCT-116 (KRASmt) tumors = assay: single agent activity against HCT-116 tumors; assay type: in vivo; settings: FIG. 5
RKO (BRAFmt) tumors = assay: single agent activity against RKO tumors; assay type: in vivo; settings: FIG. 5
[4] = tolerability of daily oral dosing; assay type: in vivo; settings: daily oral dosing of 100 mg/kg, FIG. 6
Experimental: (§1) For the xenograft studies established from the patient-derived xenograft (PDX) models (UM CRC 14-929 and UM CRC 15-1269), female 6- to 7-week-old NCR nude mice (CrTac:NCr-Foxnlnu from Taconic) were implanted subcutaneously with low-passage PDX tumor fragments (30 mg) into the region of the right axilla. For the xenograft studies established from cell lines (CT-26), cells were injected (1×10^6 cells per injection) into the flanks of female 6- to 7-week old NCR nude mice. In both cases, the mice were randomized into treatment groups and treatments initiated when tumors reached 100 to 200 mg. […] Subcutaneous tumor volume and body weights were measured two to three times a week. Tumor volumes were calculated by measuring two perpendicular diameters with calipers and using the formula: tumor volume ¼ (length x width^2)/2. Percent treated/control (% TC) was calculated by dividing the median treated tumor weight by the median control tumor weight and multiplying by 100 on the last day of treatment. […] Increase in lifespan was calculated by dividing the median increase in lifespan (days) by the median survival time of the vehicle control group. […]

xenograft = assay: in vivo efficacy in combination with MEK inhibitors (FIG. 22); set-up: species or system mice
Experimental: as §1

potency and selectivity against ERBB and PI3K family members [1]: potent and highly selective
metabolic stability [2]: favorable metabolic stability
SMILES: CS(=O)(=O)Nc1cc(-c2ccc3ncnc(Nc4ccc(F)c(Cl)c4)c3c2)cnc1Cl [MTX-211]
modulation of cellular EGFR and PI3K pathway signaling [3]: modulates cellular EGFR and PI3K pathway signaling
activity against HCT-116 (KRASmt) tumors (HCT-116 (KRASmt) tumors): single agent activity
activity against RKO (BRAFmt) tumors (RKO (BRAFmt) tumors): single agent activity
tolerability [4]: well tolerated
in vivo efficacy when combined with MEK inhibitors (xenograft): in vivo potentiation of MTX-211 efficacy

From patent US20200078360A1, “SMALL MOLECULE DUAL INHIBITORS OF EGFR/PI3K AND USES THEREOF” (The Regents of the University of Michigan, priority 2016, published 2020)
